Results from the supplement of paper PMC10307832.

How the values were obtained:
Experiment in all cases: relative viability (nuclei count vs DMSO), 5 days (fraction); higher = more cells survive
CPI-613 = compound: O=C(O)CCCCC(CCSCc1ccccc1)SCc1ccccc1 [CPI-613]
Procedure, shortened: (§1)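 Viability here means nuclei in treated wells divided by nuclei in vehicle wells, reported as the median across plates. Only plates with control CV below 25% and at least one doubling passed. Lung cancer cell lines in 1536-well plates were exposed to five √10-spaced library-drug doses for 5 days and counted from 4× Hoechst images in MetaXpress.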

JQ1 = compound: Cc1sc2c(c1C)C(c1ccc(Cl)cc1)=N[C@@H](CC(=O)OC(C)(C)C)c1nnc(C)n1-2 [JQ1]
Procedure, shortened: as §1

[1] = compound: Cc1cnc(-c2cnc(NCCNc3ccc(C#N)cn3)nc2-c2ccc(Cl)cc2Cl)[nH]1
Procedure, shortened: as §1

Docetaxel = compound: CC(=O)O[C@@]12CO[C@@H]1C[C@H](O)[C@@]1(C)C(=O)[C@H](O)C3=C(C)[C@@H](OC(=O)[C@H](O)[C@@H](NC(=O)OC(C)(C)C)c4ccccc4)C[C@@](O)([C@@H](OC(=O)c4ccccc4)[C@H]21)C3(C)C [Docetaxel]
Procedure, shortened: as §1

Pimozide = compound: O=c1[nH]c2ccccc2n1C1CCN(CCCC(c2ccc(F)cc2)c2ccc(F)cc2)CC1 [Pimozide]
Procedure, shortened: as §1

Cytarabine = compound: Nc1ccn([C@@H]2O[C@H](CO)[C@@H](O)[C@@H]2O)c(=O)n1 [Cytarabine]
Procedure, shortened: as §1

Tivozanib = compound: COc1cc2nccc(Oc3ccc(NC(=O)Nc4cc(C)on4)c(Cl)c3)c2cc1OC [Tivozanib]
Procedure, shortened: as §1

Cell Line	relative viability (CPI-613; 5 µM)	relative viability (CPI-613; 15.81 µM)	relative viability (CPI-613; 50 µM)	relative viability (CPI-613; 158.11 µM)	relative viability (CPI-613; 500 µM)	relative viability (JQ1; 0.04 µM)	relative viability (JQ1; 0.1265 µM)	relative viability (JQ1; 0.4 µM)	relative viability (JQ1; 1.265 µM)	relative viability (JQ1; 4 µM)	relative viability ([1]; 0.08 µM)	relative viability ([1]; 0.8 µM)	relative viability ([1]; 2.53 µM)	relative viability (Docetaxel; 0.0002 µM)	relative viability (Docetaxel; 0.000632 µM)	relative viability (Docetaxel; 0.002 µM)	relative viability (Docetaxel; 0.006325 µM)	relative viability (Docetaxel; 0.02 µM)	relative viability (Pimozide; 0.08 µM)	relative viability (Pimozide; 0.253 µM)	relative viability (Pimozide; 0.8 µM)	relative viability (Pimozide; 2.53 µM)	relative viability (Pimozide; 8 µM)	relative viability (Cytarabine; 0.005 µM)	relative viability (Cytarabine; 0.01581 µM)	relative viability (Cytarabine; 0.05 µM)	relative viability (Cytarabine; 0.1581 µM)	relative viability (Cytarabine; 0.5 µM)	relative viability (Tivozanib; 0.005 µM)	relative viability (Tivozanib; 0.01581 µM)	relative viability (Tivozanib; 0.05 µM)	relative viability (Tivozanib; 0.1581 µM)	relative viability (Tivozanib; 0.5 µM)	relative viability ([1]; 0.253 µM)
NCI-H1915	1.01	0.996	0.97	0.949	0.0528	0.975	0.702	0.904	0.427	0.269	1.02	0.973	0.919	0.986	0.943	0.326	0.262	0.16	0.972	0.919	0.631	0.928	0.925	0.916	0.916	0.854	0.609	0.503	0.959	0.971	0.984	0.896	0.75	–
NCI-H1563	1.05	0.957	0.996	0.531	0.307	0.898	0.785	0.778	0.648	0.661	1.03	0.934	1.09	0.881	0.974	1.08	0.744	0.593	0.952	1.03	0.93	0.869	0.867	0.936	0.974	0.971	0.835	0.771	0.958	1.05	0.975	0.95	1	0.999
HOP-62	0.978	0.936	1	0.833	0.643	0.999	0.808	0.662	0.29	0.153	0.989	1.02	0.942	0.969	0.759	0.543	0.289	0.184	1.04	0.947	0.646	0.994	0.981	0.848	0.636	0.431	0.159	0.104	1.01	1.03	1.09	0.936	0.978	0.826
NCI-H2023	0.926	0.836	0.91	0.0969	0.0098	0.893	0.665	0.439	0.243	0.207	1.32	1.06	0.939	0.846	0.547	0.147	0.12	0.0751	0.993	0.961	0.82	0.858	0.778	0.542	0.282	0.172	0.107	0.0892	0.966	0.951	0.927	0.847	0.923	0.794
201T	0.97	0.909	0.968	0.756	0.862	0.97	0.561	0.865	0.458	0.386	1.01	0.966	0.992	0.977	0.963	0.657	0.469	0.369	0.98	0.977	0.965	0.936	0.832	0.981	1.03	0.977	0.873	0.787	1.01	1.01	1.03	0.912	0.991	–
NCI-H2085	0.987	0.935	0.935	0.82	0.246	1.01	0.891	0.867	0.622	0.537	1.04	0.995	1.02	0.968	0.987	0.746	0.504	0.373	0.973	1.01	0.957	1.02	0.881	0.965	0.929	0.868	0.808	0.801	0.982	1	1.02	0.936	0.982	0.933
NCI-H1703	1.04	0.836	0.749	0.585	0.406	0.865	0.675	0.639	0.431	0.405	1.14	1.01	1.28	0.891	0.869	0.274	0.163	0.127	0.899	0.916	0.913	0.95	0.892	0.729	0.393	0.288	0.16	0.153	0.36	0.271	0.311	0.211	0.215	0.901
SW 1573	0.917	0.851	0.958	0.482	0.314	0.869	0.791	0.637	0.365	0.345	1.1	0.997	0.6	0.872	0.485	0.252	0.205	0.152	0.923	1.02	0.945	0.82	0.637	0.969	0.87	0.725	0.38	0.157	0.969	0.914	1.01	0.903	0.829	0.999
SW 900	0.837	0.642	1.02	0.601	0.0301	0.87	0.766	0.557	0.26	0.209	0.902	0.759	0.729	0.69	0.422	0.292	0.232	0.174	0.916	0.84	0.468	0.811	0.742	0.725	0.674	0.564	0.26	0.204	0.894	0.855	0.844	0.4	0.791	0.803
NCI-H1437	0.96	0.898	0.948	0.345	0.0955	0.92	0.792	0.762	0.484	0.415	1.02	0.98	1	0.914	0.765	0.457	0.281	0.158	0.991	0.969	0.959	0.904	0.723	0.79	0.64	0.494	0.243	0.206	0.968	0.971	0.988	0.982	0.88	0.928
PC-14	0.956	0.9	0.941	0.685	0.595	0.971	0.684	0.652	0.333	0.22	1.07	1.04	0.867	0.941	0.742	0.209	0.081	0.0432	–	0.965	0.851	0.915	0.987	0.881	0.922	0.565	0.174	0.127	0.924	1.05	1.06	1.03	0.927	0.861
NCI-H661	0.963	0.914	0.956	0.832	0.233	1.03	0.962	0.952	0.879	0.769	0.979	0.975	0.898	0.93	0.986	1	0.541	0.459	0.99	1.01	0.925	0.897	0.924	1.04	0.93	0.902	0.715	0.581	0.954	0.975	0.993	0.992	1.01	0.973
NCI-H650	0.937	0.803	1.05	0.621	0.716	0.946	0.628	0.78	0.365	0.298	1.03	0.797	0.783	0.871	0.456	0.343	0.257	0.187	0.969	0.914	0.839	0.997	1.12	0.893	0.581	0.328	0.234	0.205	0.86	0.979	0.935	0.607	0.706	1.01
NCI-H727	0.831	0.825	0.916	0.654	0.309	0.923	0.988	0.413	0.465	0.409	0.952	0.943	0.86	0.772	0.892	0.726	0.548	0.413	0.849	0.864	0.998	0.879	0.93	0.785	0.766	0.788	0.402	0.382	0.8	0.85	1.01	0.702	0.917	0.864
NCI-H1734	0.861	0.841	0.884	0.48	0.111	0.934	0.904	0.999	0.664	0.578	1.08	0.974	0.85	0.857	0.602	0.359	0.332	0.235	0.981	0.901	0.81	0.915	0.974	0.578	0.342	0.256	0.156	0.136	0.963	1.03	0.983	0.721	0.885	0.891
NCI-H1944	0.918	0.922	0.947	0.712	0.51	0.951	0.709	0.612	0.53	0.485	1.09	1.01	0.916	0.948	1	0.822	0.336	0.173	0.925	0.877	0.698	0.795	0.944	0.654	0.481	0.381	0.23	0.159	0.925	0.998	0.949	0.849	0.978	–
EKVX	0.935	0.959	0.932	0.628	0.935	0.997	0.781	0.939	0.827	0.769	1	0.975	0.835	0.97	0.874	0.462	0.262	0.176	–	0.906	0.923	0.978	0.984	1.02	0.913	0.694	0.364	0.362	0.908	0.989	1.09	0.939	0.971	0.824
BEN	0.988	0.843	0.96	0.799	0.811	0.809	0.848	0.594	0.44	0.387	1.05	0.933	0.984	0.951	1.01	0.593	0.291	0.198	0.96	1.07	0.975	0.925	1.04	0.892	0.794	0.617	0.473	0.335	0.922	1.05	1.02	–	0.889	0.991
NCI-H2405	0.996	0.909	0.939	0.931	0.78	1.03	0.598	0.921	0.711	0.499	1.01	0.948	0.736	0.982	0.879	0.633	0.453	0.339	0.964	0.937	1.03	0.992	0.96	0.927	0.712	0.57	0.512	0.384	0.933	1.02	1.04	0.89	0.772	0.938
